Results: patent US10689378B2, “Triazolopyridine compounds and uses thereof” (Novartis AG, priority 2016, dated 2020)

Tests used:
EED (1-441)-His protein = target: T1, EED (1-441)-His protein (Homo sapiens, UniProt O75530); assay: EED-H3K27Me3 peptide competition binding assay by AlphaScreen; conditions: EED-H3K27Me3 peptide competition, AlphaScreen; read-out: (a) IC50 EED Alphascreen binding Qualified
T1 construct: 30 nM EED (1-441)-His protein
Outline: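 Serially diluted compound (12 points, 3-fold) incubated 20 min with 30 nM EED(1-441)-His and 15 nM biotin-H3K27Me3(19-33) peptide in 25 mM HEPES pH 8, 0.02% Tween-20, 0.5% BSA. Ni-chelate acceptor/streptavidin donor beads (10 μg/mL each) added, 1 h rt dark; 615 nm emission normalized to controls, dose-response fit for IC50.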

[1] = target: wild type PRC2 (wtPRC2) complex (Homo sapiens, UniProt O75530); assay: EED LC-MS assay (SAH production by PRC2); format: biochemical; conditions: PRC2 LC-MS assay; read-out: (b) IC50 EED LC-MS Qualified
Outline: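 Pentameric PRC2 (EZH2, SUZ12, EED, Rbap48, AEBP), 12 nM final, preincubated 20 min with compound and SAM, then 1.5 μM biotinylated H3K27me0 peptide, 1 μM SAM, pH 8.0, 120 min at rt. SAH quantified by LC-MS/MS with d4-SAH; control-normalized activity fitted for IC50.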

[2] = test system: H3K27 methylation in G401 cell; assay: ELISA (H3K27 methylation) assay in G401 cells; format: cell-based, human; conditions: Homo sapiens, G-401, H3K27 methylation ELISA, read-out: (c) IC50 ELISA Qualified
Outline: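 G401 cells treated 48 h with 3-fold dilutions (8 or 12 points, top 20 μM). Acid-extracted histones probed by ELISA for H3K27me3 or H3K27me2 with ECL readout, normalized to total H3. Percent inhibition versus DMSO fitted to dose-response curve for IC50.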

T1 sequence (O75530 whole entry): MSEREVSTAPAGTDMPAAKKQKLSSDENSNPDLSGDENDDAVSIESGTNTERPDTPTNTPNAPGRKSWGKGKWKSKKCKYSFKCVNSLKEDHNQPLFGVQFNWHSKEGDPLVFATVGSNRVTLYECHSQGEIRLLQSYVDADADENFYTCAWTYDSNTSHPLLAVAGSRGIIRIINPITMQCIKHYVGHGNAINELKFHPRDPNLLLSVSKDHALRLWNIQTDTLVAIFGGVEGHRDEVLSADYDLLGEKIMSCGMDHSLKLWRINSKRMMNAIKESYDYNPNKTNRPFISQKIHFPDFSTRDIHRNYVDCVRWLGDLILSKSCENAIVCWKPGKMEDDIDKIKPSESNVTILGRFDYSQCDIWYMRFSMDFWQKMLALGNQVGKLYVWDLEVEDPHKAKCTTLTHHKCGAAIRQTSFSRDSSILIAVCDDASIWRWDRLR
wild type PRC2 (wtPRC2) complex, sequence (O75530 whole entry): as above
wild type PRC2 (wtPRC2) complex, sequence (Q15910 whole entry partner): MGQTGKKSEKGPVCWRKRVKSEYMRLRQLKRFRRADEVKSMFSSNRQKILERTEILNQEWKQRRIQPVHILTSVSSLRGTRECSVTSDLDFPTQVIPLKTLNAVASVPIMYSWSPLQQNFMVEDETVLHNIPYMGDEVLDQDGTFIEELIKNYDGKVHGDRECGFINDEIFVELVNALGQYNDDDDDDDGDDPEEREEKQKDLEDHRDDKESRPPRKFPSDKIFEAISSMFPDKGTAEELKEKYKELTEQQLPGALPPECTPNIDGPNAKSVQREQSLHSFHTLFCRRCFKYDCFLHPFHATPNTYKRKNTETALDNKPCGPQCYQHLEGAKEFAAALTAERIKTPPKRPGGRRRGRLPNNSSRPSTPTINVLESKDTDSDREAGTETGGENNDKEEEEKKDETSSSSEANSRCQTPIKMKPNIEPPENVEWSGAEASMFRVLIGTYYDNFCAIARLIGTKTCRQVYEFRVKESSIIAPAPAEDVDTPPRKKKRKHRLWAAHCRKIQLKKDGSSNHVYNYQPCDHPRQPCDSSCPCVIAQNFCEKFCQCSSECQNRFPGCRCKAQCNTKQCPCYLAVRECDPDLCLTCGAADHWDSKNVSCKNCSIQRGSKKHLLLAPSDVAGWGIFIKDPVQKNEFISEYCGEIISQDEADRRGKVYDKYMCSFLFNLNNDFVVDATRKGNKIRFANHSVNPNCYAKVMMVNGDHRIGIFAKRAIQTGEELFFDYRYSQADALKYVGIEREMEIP
wild type PRC2 (wtPRC2) complex, sequence (Q15022 whole entry partner): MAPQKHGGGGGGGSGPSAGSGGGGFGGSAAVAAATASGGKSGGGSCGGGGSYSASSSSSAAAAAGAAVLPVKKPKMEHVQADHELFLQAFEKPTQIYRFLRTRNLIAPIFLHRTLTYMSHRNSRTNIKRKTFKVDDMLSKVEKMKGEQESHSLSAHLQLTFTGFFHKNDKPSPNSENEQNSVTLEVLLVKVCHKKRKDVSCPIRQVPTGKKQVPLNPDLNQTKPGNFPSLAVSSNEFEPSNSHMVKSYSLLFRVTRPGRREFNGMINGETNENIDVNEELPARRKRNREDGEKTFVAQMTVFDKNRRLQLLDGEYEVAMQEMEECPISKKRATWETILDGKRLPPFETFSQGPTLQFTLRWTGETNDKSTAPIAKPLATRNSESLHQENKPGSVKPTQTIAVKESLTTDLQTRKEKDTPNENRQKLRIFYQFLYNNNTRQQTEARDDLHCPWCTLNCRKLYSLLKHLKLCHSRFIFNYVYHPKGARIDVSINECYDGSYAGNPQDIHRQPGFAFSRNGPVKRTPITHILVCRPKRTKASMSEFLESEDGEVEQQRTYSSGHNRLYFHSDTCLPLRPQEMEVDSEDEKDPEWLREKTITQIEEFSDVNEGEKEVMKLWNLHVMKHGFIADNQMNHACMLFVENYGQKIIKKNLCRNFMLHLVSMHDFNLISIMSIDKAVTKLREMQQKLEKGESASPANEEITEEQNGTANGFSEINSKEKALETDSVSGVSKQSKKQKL
wild type PRC2 (wtPRC2) complex, sequence (Q09028 whole entry partner): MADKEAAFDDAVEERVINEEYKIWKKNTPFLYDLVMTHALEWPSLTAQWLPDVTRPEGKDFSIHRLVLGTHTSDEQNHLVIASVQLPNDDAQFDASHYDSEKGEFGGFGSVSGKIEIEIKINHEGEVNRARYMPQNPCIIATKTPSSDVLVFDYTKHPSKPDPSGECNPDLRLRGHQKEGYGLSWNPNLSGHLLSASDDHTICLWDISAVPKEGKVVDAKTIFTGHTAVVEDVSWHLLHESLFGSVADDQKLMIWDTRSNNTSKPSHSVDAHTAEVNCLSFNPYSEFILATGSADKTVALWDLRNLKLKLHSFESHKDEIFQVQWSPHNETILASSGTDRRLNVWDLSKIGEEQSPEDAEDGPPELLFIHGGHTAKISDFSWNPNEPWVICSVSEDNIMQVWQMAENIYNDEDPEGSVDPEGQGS
wild type PRC2 (wtPRC2) complex, sequence (Q6ZN18 whole entry partner): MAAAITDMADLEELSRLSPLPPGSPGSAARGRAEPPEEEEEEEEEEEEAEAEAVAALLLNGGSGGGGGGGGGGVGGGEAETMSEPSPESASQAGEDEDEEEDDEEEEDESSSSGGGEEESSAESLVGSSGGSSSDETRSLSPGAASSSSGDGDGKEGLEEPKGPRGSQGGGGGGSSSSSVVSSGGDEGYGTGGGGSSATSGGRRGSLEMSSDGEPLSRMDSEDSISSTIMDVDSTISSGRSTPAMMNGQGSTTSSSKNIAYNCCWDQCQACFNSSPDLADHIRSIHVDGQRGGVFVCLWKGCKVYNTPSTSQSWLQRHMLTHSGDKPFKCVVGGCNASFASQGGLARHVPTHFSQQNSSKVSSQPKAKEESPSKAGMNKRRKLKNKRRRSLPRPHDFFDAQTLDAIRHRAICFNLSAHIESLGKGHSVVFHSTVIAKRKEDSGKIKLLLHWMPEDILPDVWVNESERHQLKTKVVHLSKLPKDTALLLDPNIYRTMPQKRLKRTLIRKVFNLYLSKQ

## COc1cccc(F)c1CNc1ccc(-c2ccc(N3CCOCC3)nc2)c2nncn12 [Example 172, N-(2-fluoro-6-methoxybenzyl)-8-(6-morpholinopyridin-3-yl)-[1,2,4]triazolo [4,3-a]pyridin-5-amine]
EED (1-441)-His protein
  IC50: 0.0564 µM
[1]
  IC50: 0.162 µM
[2]
  IC50: 0.111 µM

## COc1ccc(-c2ccc(NCc3c(F)cccc3OC)n3cnnc23)cn1 [Example 173, N-(2-fluoro-6-methoxybenzyl)-8-(6-methoxypyridin-3-yl)-[1,2,4]triazolo [4,3-a]pyridin-5-amine]
EED (1-441)-His protein
  IC50: 0.0363 µM
[1]
  IC50: 0.123 µM
[2]
  IC50: 0.0403 µM

## COc1cccc(F)c1CNc1ccc(-c2ccc(N(C)C)nc2)c2nncn12 [Example 174, 8-(6-(dimethylamino)pyridin-3-yl)-N-(2-fluoro-6-methoxybenzyl)-[1,2,4]triazolo[4,3-a] pyridin-5-amine]
EED (1-441)-His protein
  IC50: 0.0472 µM
[1]
  IC50: 0.136 µM
[2]
  IC50: 0.0767 µM

## COc1cccc(F)c1CNc1ccc(-c2ccnc(CCO)c2)c2nncn12 [Example 175, 2-(4-(5-((2-fluoro-6-methoxybenzyl)amino)-[1,2,4]triazolo[4,3-a]pyridin-8-yl)pyridin-2-yl)ethanol]
EED (1-441)-His protein
  IC50: 0.0359 µM
[1]
  IC50: 0.148 µM
[2]
  IC50: 0.0239 µM

## COc1cccc(F)c1CNc1ccc(-c2cccnc2OC)c2nncn12 [Example 176, N-(2-fluoro-6-methoxybenzyl)-8-(2-methoxypyridin-3-yl)-[1,2,4]triazolo [4,3-a]pyridin-5-amine]
EED (1-441)-His protein
  IC50: 0.0329 µM
[1]
  IC50: 0.176 µM
[2]
  IC50: 0.0586 µM

## COc1cccc(F)c1CNc1ccc(-c2ccc(S(C)(=O)=O)cc2F)c2nncn12 [Example 177, 8-(2-fluoro-4-(methylsulfonyl)phenyl)-N-(2-fluoro-6-methoxybenzyl)-[1,2,4]triazolo[4,3-a]pyridin-5-amine]
EED (1-441)-His protein
  IC50: 0.0158 µM
[1]
  IC50: 0.0323 µM
[2]
  IC50: 0.0123 µM

## COc1cccc(F)c1CNc1ccc(-c2ccc(C(=O)N(C)C)cc2F)c2nncn12 [Example 178, 3-fluoro-4-(5-((2-fluoro-6-methoxybenzyl)amino)-[1,2,4]triazolo[4,3-a]pyridin-8-yl)-N,N-dimethyl benzamide]
EED (1-441)-His protein
  IC50: 0.0065 µM
[1]
  IC50: 0.0188 µM
[2]
  IC50: 0.0065 µM

## COc1cccc(F)c1CNc1ccc(-c2ccc(S(=O)(=O)C3CCNCC3)nc2)c2nncn12 [Example 179, N-(2-fluoro-6-methoxybenzyl)-8-(6-(piperidin-4-ylsulfonyl)pyridin-3-yl)-[1,2,4]triazolo[4,3-a]pyridin-5-amine]
EED (1-441)-His protein
  IC50: 0.0248 µM
[1]
  IC50: 0.174 µM
[2]
  IC50: 0.0132 µM

## COc1ccccc1CNc1ccc(-c2ccc(N3CCN(C)CC3C)nc2)c2nncn12 (stereo not drawn) [Example 180, 8-(6-(2,4-dimethylpiperazin-1-yl)pyridin-3-yl)-N-(2-methoxybenzyl)-[1,2,4] triazolo[4,3-a]pyridin-5-amine]
EED (1-441)-His protein
  IC50: 0.0557 µM
[1]
  IC50: 0.171 µM
[2]
  IC50: 0.0579 µM

## COc1cccc(F)c1CNc1ccc(-c2cnccc2F)c2nncn12 [Example 181, N-(2-fluoro-6-methoxybenzyl)-8-(4-fluoropyridin-3-yl)-[1,2,4]triazolo[4,3-a] pyridin-5-amine]
EED (1-441)-His protein
  IC50: 0.0112 µM
[1]
  IC50: 0.0442 µM
[2]
  IC50: 0.0114 µM

## CNC(=O)c1cncc(-c2ccc(NCc3c(F)cccc3OC)n3cnnc23)c1 [Example 182, 5-(5-((2-fluoro-6-methoxybenzyl)amino)-[1,2,4]triazolo[4,3-a]pyridin-8-yl)-N-methylnicotinamide]
EED (1-441)-His protein
  IC50: 0.0204 µM
[1]
  IC50: 0.52 µM
[2]
  IC50: 0.0165 µM

## COc1cccc(F)c1CNc1ccc(-c2ccc(CCO)nc2)c2nncn12 [Example 183, 2-(5-(5-((2-fluoro-6-methoxybenzyl)amino)-[1,2,4]triazolo[4,3-a]pyridin-8-yl)pyridin-2-yl)ethanol]
EED (1-441)-His protein
  IC50: 0.0199 µM
[1]
  IC50: 0.0416 µM
[2]
  IC50: 0.0173 µM

## COc1cccc(F)c1CNc1ccc(-c2cnc(S(C)(=O)=O)cc2C)c2nncn12 [Example 184, N-(2-fluoro-6-methoxybenzyl)-8-(4-methyl-6-(methylsulfonyl)pyridin-3-yl)-[1,2,4]triazolo[4,3-a] pyridin-5-amine]
EED (1-441)-His protein
  IC50: 0.0464 µM
[1]
  IC50: 0.0777 µM
[2]
  IC50: 0.025 µM

## COc1cccc(F)c1CNc1ccc(-c2ccc(S(C)(=O)=O)nc2C)c2nncn12 [Example 185, N-(2-fluoro-6-methoxybenzyl)-8-(2-methyl-6-(methylsulfonyl)pyridin-3-yl)-[1,2,4]triazolo[4,3-a] pyridin-5-amine]
EED (1-441)-His protein
  IC50: 0.0079 µM
[1]
  IC50: 0.0185 µM
[2]
  IC50: 0.0036 µM

## COc1cccc(F)c1CNc1ccc(-c2cn(C)nc2C)c2nncn12 [Example 186, 8-(1,3-dimethyl-1H-pyrazol-4-yl)-N-(2-fluoro-6-methoxybenzyl)-[1,2,4]triazolo[4,3-a] pyridin-5-amine]
EED (1-441)-His protein
  IC50: 0.0659 µM
[1]
  IC50: 0.014 µM
[2]
  IC50: 0.0409 µM

## COc1cccc(F)c1CNc1ccc(-c2c(C)n[nH]c2C)c2nncn12 [Example 187, 8-(3,5-dimethyl-1H-pyrazol-4-yl)-N-(2-fluoro-6-methoxybenzyl)-[1,2,4]triazolo[4,3-a] pyridin-5-amine]
EED (1-441)-His protein
  IC50: 0.0416 µM
[1]
  IC50: 0.172 µM
[2]
  IC50: 0.0528 µM

## COc1cccc(F)c1CNc1ccc(-c2cnn(C)c2C)c2nncn12 [Example 188, 8-(1,5-dimethyl-1H-pyrazol-4-yl)-N-(2-fluoro-6-methoxybenzyl)-[1,2,4]triazolo[4,3-a] pyridin-5-amine]
EED (1-441)-His protein
  IC50: 0.0552 µM
[1]
  IC50: 0.0931 µM
[2]
  IC50: 0.0348 µM

## COc1cccc(F)c1CNc1ccc(-c2c[nH]nc2C)c2nncn12 [Example 189, N-(2-fluoro-6-methoxybenzyl)-8-(3-methyl-1H-pyrazol-4-yl)-[1,2,4] triazolo[4,3-a]pyridin-5-amine]
EED (1-441)-His protein
  IC50: 0.0536 µM
[1]
  IC50: 0.0711 µM
[2]
  IC50: 0.0564 µM

## COc1ccncc1-c1ccc(NCc2c(F)cccc2OC)n2cnnc12 [Example 190, N-(2-fluoro-6-methoxybenzyl)-8-(4-methoxypyridin-3-yl)-[1,2,4] triazolo[4,3-a]pyridin-5-amine]
EED (1-441)-His protein
  IC50: 0.0415 µM
[1]
  IC50: 0.24 µM
[2]
  IC50: 0.0131 µM

## COc1cccc(F)c1CNc1ccc(-c2ccccc2Cl)c2nncn12 [Example 192, 8-(2-chlorophenyl)-N-(2-fluoro-6-methoxybenzyl)-[1,2,4]triazolo[4,3-a]pyridin-5-amine]
EED (1-441)-His protein
  IC50: 0.0888 µM
[1]
  IC50: 0.348 µM
[2]
  IC50: 0.118 µM

## COc1cccc(F)c1CNc1ccc(-c2ccc(C(=O)N(C)C)nc2)c2nncn12 [Example 194, 5-(5-((2-fluoro-6-methoxybenzyl)amino)-[1,2,4]triazolo[4,3-a]pyridin-8-yl)-N,N-dimethylpicolinamide]
EED (1-441)-His protein
  IC50: 0.0165 µM
[1]
  IC50: 0.0494 µM
[2]
  IC50: 0.0063 µM

## COc1cccc(F)c1CNc1ccc(-c2cncc(C(=O)N(C)C)c2)c2nncn12 [Example 195, 5-(5-((2-fluoro-6-methoxybenzyl)amino)-[1,2,4]triazolo[4,3-a]pyridin-8-yl)-N,N-dimethylnicotinamide]
EED (1-441)-His protein
  IC50: 0.0176 µM
[1]
  IC50: 0.0613 µM
[2]
  IC50: 0.008 µM

## COc1cccc(F)c1CNc1ccc(-c2ccc(NC(C)=O)nc2)c2nncn12 [Example 196, N-(5-(5-((2-fluoro-6-methoxybenzyl)amino)-[1,2,4]triazolo[4,3-a]pyridin-8-yl)pyridin-2-yl)acetamide]
EED (1-441)-His protein
  IC50: 0.0253 µM
[1]
  IC50: 0.164 µM
[2]
  IC50: 0.0438 µM

## COc1cccc(F)c1CNc1ccc(-c2cncc(OCCCS(C)(=O)=O)c2)c2nncn12 [Example 198, N-(2-fluoro-6-methoxybenzyl)-8-(5-(3-(methylsulfonyl)propoxy)pyridin-3-yl)-[1,2,4]triazolo [4,3-a]pyridin-5-amine]
EED (1-441)-His protein
  IC50: 0.0345 µM
[1]
  IC50: 0.235 µM
[2]
  IC50: 0.032 µM

## COc1cccc(F)c1CNc1ccc(-c2cncc(C3=NC(C)(C)CO3)c2)c2nncn12 [Example 199, 8-(5-(4,4-dimethyl-4,5-dihydrooxazol-2-yl)pyridin-3-yl)-N-(2-fluoro-6-methoxybenzyl)-[1,2,4]triazolo[4,3-a] pyridin-5-amine]
EED (1-441)-His protein
  IC50: 0.0237 µM
[1]
  IC50: 0.328 µM
[2]
  IC50: 0.0313 µM

## COc1cccc(F)c1CNc1ccc(-c2cc(F)c(N)c(F)c2)c2nncn12 [Example 200, 8-(4-amino-3,5-difluorophenyl)-N-(2-fluoro-6-methoxybenzyl)-[1,2,4] triazolo[4,3-a]pyridin-5-amine]
EED (1-441)-His protein
  IC50: 0.0711 µM
[1]
  IC50: 0.225 µM
[2]
  IC50: 0.11 µM

## COc1cccc(F)c1CNc1ccc(-c2ccc(F)cc2C)c2nncn12 [Example 201, 8-(4-fluoro-2-methylphenyl)-N-(2-fluoro-6-methoxybenzyl)-[1,2,4]triazolo[4,3-a] pyridin-5-amine]
EED (1-441)-His protein
  IC50: 0.0465 µM
[1]
  IC50: 0.366 µM
[2]
  IC50: 0.0717 µM

## COCc1cncc(-c2ccc(NCc3c(F)cccc3OC)n3cnnc23)c1 [Example 203, N-(2-fluoro-6-methoxybenzyl)-8-(5-(methoxymethyl)pyridin-3-yl)-[1,2,4]triazolo[4,3-a] pyridin-5-amine]
EED (1-441)-His protein
  IC50: 0.0538 µM
[1]
  IC50: 0.073 µM
[2]
  IC50: 0.0387 µM
